In patent US8791132B2, “Compounds and methods for treatment of hypertension” (Medivation Technologies, Inc., priority 2011, dated 2014):
“And” between values parts separate entries of the source, which are not always exact repeats. Identical values can stand only once. Like-named read-outs stand apart in the source and are kept apart here.

Assays:
[1] = target: T1, human recombinant adrenergic α2A receptor (Homo sapiens, UniProt P08913); test: Radioligand binding, adrenergic α2A ([3H]MK-912); conditions: for Percentage inhibition of ligand binding, Adrenergic α2A / Percentage inhibition of ligand binding, Adrenergic α2A (0.1 μM): 0.1 µM
T1 construct: expressed in transfected cells; host or cells: insect Sf9 cells
T1 sequence (P08913 1-465): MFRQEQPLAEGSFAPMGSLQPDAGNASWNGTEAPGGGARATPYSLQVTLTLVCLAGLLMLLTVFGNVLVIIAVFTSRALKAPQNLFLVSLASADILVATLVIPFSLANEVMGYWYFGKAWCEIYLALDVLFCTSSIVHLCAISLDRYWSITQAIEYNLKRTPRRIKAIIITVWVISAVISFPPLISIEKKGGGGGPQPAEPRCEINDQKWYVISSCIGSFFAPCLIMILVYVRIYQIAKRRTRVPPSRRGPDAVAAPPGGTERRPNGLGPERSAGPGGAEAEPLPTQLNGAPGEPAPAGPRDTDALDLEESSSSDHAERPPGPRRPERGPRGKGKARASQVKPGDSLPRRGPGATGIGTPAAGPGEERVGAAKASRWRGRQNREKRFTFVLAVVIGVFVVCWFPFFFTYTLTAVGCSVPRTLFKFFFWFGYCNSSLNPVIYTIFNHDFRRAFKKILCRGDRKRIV
Outline: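 Sf9-expressed receptor was incubated with compound for 60 min at 25 °C in modified Tris-HCl buffer, pH 7.4. Nonspecific binding was taken as that remaining with 10 μM WB-4101.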

[2] = target: T2, human recombinant adrenergic α1D receptor (Homo sapiens, UniProt P25100); test: Radioligand binding, adrenergic α1D ([3H]Prazosin); conditions: [3H]Prazosin
T2 construct: expressed in transfected cells; host or cells: HEK-293
T2 sequence (P25100 1-572): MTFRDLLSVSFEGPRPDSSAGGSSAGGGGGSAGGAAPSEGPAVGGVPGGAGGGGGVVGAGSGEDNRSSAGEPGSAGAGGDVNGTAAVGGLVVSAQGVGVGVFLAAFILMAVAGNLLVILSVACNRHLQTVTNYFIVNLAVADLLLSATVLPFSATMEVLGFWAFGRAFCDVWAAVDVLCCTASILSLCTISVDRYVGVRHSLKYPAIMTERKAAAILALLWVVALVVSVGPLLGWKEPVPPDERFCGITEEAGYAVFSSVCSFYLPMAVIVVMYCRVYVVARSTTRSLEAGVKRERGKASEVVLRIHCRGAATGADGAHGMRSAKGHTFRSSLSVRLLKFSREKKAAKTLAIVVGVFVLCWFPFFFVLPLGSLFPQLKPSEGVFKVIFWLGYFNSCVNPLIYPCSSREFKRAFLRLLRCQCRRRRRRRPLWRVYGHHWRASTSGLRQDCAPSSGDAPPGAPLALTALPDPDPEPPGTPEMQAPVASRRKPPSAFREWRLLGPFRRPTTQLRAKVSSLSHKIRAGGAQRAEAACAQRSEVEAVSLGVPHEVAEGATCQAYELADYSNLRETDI
Protocol: Compounds were incubated with 0.6 nM [3H]Prazosin for 60 min at 25° C. Non-specific binding was estimated in the presence of 10 μM phentolamine. Receptor proteins were filtered and washed, the filters were then counted to determine [3H]Prazosin specifically bound. […] Biochemical assay results are presented as the percent inhibition of specific binding in Table B1.

[3] = target: T3, rat adrenergic α1B receptor (Rattus norvegicus, UniProt P15823); test: Radioligand binding, adrenergic α1B ([3H]Prazosin); conditions: [3H]Prazosin; for Percentage inhibition of ligand binding, Adrenergic α1B / Percentage inhibition of ligand binding, Adrenergic α1B (0.1 μM): 0.1 µM
T3 construct: rat adrenergic α1B receptor obtained from Wistar Rat liver; from tissue; host or cells: Wistar rat liver
T3 sequence (P15823 1-515): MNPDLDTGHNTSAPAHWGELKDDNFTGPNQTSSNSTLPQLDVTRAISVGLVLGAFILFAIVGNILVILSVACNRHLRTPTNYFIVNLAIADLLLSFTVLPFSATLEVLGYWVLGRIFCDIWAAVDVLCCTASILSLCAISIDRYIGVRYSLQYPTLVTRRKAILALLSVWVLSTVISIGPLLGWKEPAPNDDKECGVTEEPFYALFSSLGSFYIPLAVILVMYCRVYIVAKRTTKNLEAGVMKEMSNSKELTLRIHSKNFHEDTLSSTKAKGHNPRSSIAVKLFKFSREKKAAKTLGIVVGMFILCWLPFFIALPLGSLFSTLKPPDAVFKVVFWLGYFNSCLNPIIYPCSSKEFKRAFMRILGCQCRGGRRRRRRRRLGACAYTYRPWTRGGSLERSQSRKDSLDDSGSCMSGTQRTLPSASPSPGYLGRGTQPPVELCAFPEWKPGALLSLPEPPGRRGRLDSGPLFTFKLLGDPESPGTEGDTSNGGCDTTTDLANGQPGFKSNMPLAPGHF
Outline: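 Incubation ran 60 min at 25 °C in Tris-HCl buffer (50 mM, pH 7.4, 0.5 mM EDTA) with Wistar rat liver α1B receptor. 10 μM phentolamine set non-specific binding.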

[4] = compound at 0.03 μM, [3H]MK-912, repeat assays, each datapoint shown, read-out: Percentage inhibition of ligand binding, Adrenergic α2A
[5] = compound at 0.1 μM, repeat assays, each datapoint shown, read-out: Percentage inhibition of ligand binding, Adrenergic α1D
[6] = compound at 0.03 μM, repeat assays, each datapoint shown, read-out: Percentage inhibition of ligand binding, Adrenergic α1B
[7] = compound at 0.1 μM, repeat assays, each datapoint shown
[8] = compound at 0.1 μM, repeat assays, each datapoint shown, read-out: Percentage inhibition of ligand binding, Adrenergic α1B
[9] = compound at 0.1 μM, [3H]MK-912, repeat assays, each datapoint shown
[10] = compound at 0.1 μM, [3H]MK-912, repeat assays, each datapoint shown, read-out: Percentage inhibition of ligand binding, Adrenergic α2A
[11] = read-out: Percentage inhibition of ligand binding, Adrenergic α2A (0.1 μM), compound at 0.1 μM, [3H]MK-912, repeat datapoints each shown
[12] = read-out: Percentage inhibition of ligand binding, Adrenergic α1D (0.1 μM), compound at 0.1 μM, repeat datapoints each shown
[13] = read-out: Percentage inhibition of ligand binding, Adrenergic α1B (0.03 μM), compound at 0.03 μM, repeat datapoints each shown
[14] = read-out: Percentage inhibition of ligand binding, Adrenergic α1B (0.1 μM), compound at 0.1 μM, repeat datapoints each shown
[15] = compound at 0.1 μM, [3H]MK-912, repeat datapoints each shown
[16] = compound at 0.1 μM, repeat datapoints each shown
[17] = compound at 0.03 μM, repeat datapoints each shown

| Ki [1] [nM] | inhibition at 0.03 µM [3, 6] [%] | Percentage inhibition of ligand binding, Adrenergic α1B [3, 7] | inhibition at 0.1 µM [3, 8] [%] | Percentage inhibition of ligand binding, Adrenergic α2A [1, 9] | inhibition at 0.1 µM [1, 11] [%] | inhibition at 0.03 µM [3, 13] [%] | inhibition at 0.1 µM [3, 14] [%] | Percentage inhibition of ligand binding, Adrenergic α1B (0.1 μM) [3, 16] | SMILES | also measured |
| --- | --- | --- | --- | --- | --- | --- | --- | --- | --- | --- |
| 0.26 | 24 | 54% | 51 |  |  |  |  |  | Cc1ccc2c(c1)c1c(n2CC(O)c2ccncc2)CCN(C)C1 (centres unmarked) [compound 3] | inhibition at 0.03 µM [1, 4]: 4%; inhibition at 0.1 µM [2, 5]: 12% |
|  | -3 |  | 26 |  |  |  |  |  | CCN1CCc2c(c3cc(C)ccc3n2CCc2ccncc2)C1 [compound 85] | inhibition at 0.1 µM [1, 10]: 12%; inhibition at 0.1 µM [2, 5]: 17% |
|  |  |  |  |  | 89 | -4 | 30 |  | Cc1ccc(CCn2c3c(c4ccccc42)CN(C)CC3)cc1 [compound 181, 2,3,4,5-Tetrahydro-2-methyl-5-(4-methylphenethyl)-1H-pyrido[4,3-b]indole] | inhibition at 0.1 µM [2, 12]: 32% |
|  |  |  |  |  | 75 |  | 81 | 82% | COc1ccc(/C(C)=C/n2c3c(c4cc(C)ccc42)CCN(C)CC3)cc1F [compound 241] | Percentage inhibition of ligand binding, Adrenergic α2A (0.1 μM) [1, 15]: 78%; Percentage inhibition of ligand binding, Adrenergic α1D (0.1 μM) [2, 16]: 49%; inhibition at 0.1 µM [2, 12]: 47% |
| 11 |  |  |  |  | 54 | 24 | 53 | 55% | C/C(=C\n1c2c(c3cc(C)ccc31)CN(C)CC2)c1ccc(C)nc1 [compound 186] | Percentage inhibition of ligand binding, Adrenergic α2A (0.1 μM) [1, 15]: 72%; inhibition at 0.03 µM ([1]; read-out: Percentage inhibition of ligand binding, Adrenergic α2A (0.03 μM), compound at 0.03 μM, [3H]MK-912, repeat datapoints each shown): 53%; Percentage inhibition of ligand binding, Adrenergic α1D (0.1 μM) [2, 16]: 55%; inhibition at 0.03 µM ([2]; read-out: Percentage inhibition of ligand binding, Adrenergic α1D (0.03 μM), compound at 0.03 μM, repeat datapoints each shown): 31%; inhibition at 0.1 µM [2, 12]: 51% |
|  |  |  |  |  |  | 52 |  | 79% | Cc1ccc2c(c1)c1c(n2CC(C)(O)c2cnccn2)CCN2CCCC12 (single isomer, unassigned) [176a] | Percentage inhibition of ligand binding, Adrenergic α2A (0.1 μM) [1, 15]: 32% |
|  |  |  |  |  | 3 | 28 | 53 | 60% and 66% | Cc1ccc2c(c1)c1c(n2CC(O)c2ccc(C(N)=O)nc2)CCN(C)C1 (single isomer, unassigned) [144b, 5-[2-(2,8-dimethyl-1,2,3,4-tetrahydro-pyrido[4,3-b]indol-5-yl)-1-hydroxy-ethyl]-pyridine-2-carboxylic acid amide] | Percentage inhibition of ligand binding, Adrenergic α2A (0.1 μM) [1, 15]: 4%; Percentage inhibition of ligand binding, Adrenergic α1B (0.03 μM) [3, 17]: 36% |
|  |  |  |  |  | 67 | 22 | 50 |  | CCN1CCc2c(c3cc(C)ccc3n2CCc2ccccc2)C1 [compound 201] | inhibition at 0.1 µM [2, 12]: 18% |
|  |  | 15% | 9 | 29% |  |  |  |  | Cc1ccc2c(c1)c1c(n2CC2(c3ccccc3)OCCO2)CCN(C)C1 [compound 83] | inhibition at 0.1 µM [1, 10]: 21%; inhibition at 0.1 µM [2, 5]: 13% |

The remaining lines, values behind:

| SMILES | Ki [1] [nM] | inhibition at 0.03 µM [3, 6] [%] | Percentage inhibition of ligand binding, Adrenergic α1B [3, 7] | inhibition at 0.1 µM [3, 8] [%] | Percentage inhibition of ligand binding, Adrenergic α2A [1, 9] | inhibition at 0.1 µM [1, 11] [%] | inhibition at 0.03 µM [3, 13] [%] | inhibition at 0.1 µM [3, 14] [%] | Percentage inhibition of ligand binding, Adrenergic α1B (0.1 μM) [3, 16] | also measured |
| --- | --- | --- | --- | --- | --- | --- | --- | --- | --- | --- |
| CN1CCc2c(n(CC(O)c3ccncc3)c3ccc(Cl)cc23)C1 (single isomer, unassigned) [41a] |  |  | 43% |  | −9% |  |  |  |  |  |
| Cc1cnc2c(c1)c1c(n2CC(C)(O)c2cccnc2)CCN2CCCC12 (single isomer, unassigned) [26a] | 113 | 32 | 52% and 61% |  | 23% and 33% |  |  |  |  | inhibition at 0.03 µM [1, 4]: 14% |
| Cc1ccc2c(c1)c1c(n2CC(O)c2ccncc2)CCNC1 (single isomer, unassigned) [39a, 2-(8-methyl-1,2,3,4-tetrahydro-pyrido[4,3-b]indol-5-yl)-1-pyridin-4-yl-ethanol] | 1660 | 9 | 33% | 38 | 15% |  |  |  |  | inhibition at 0.03 µM [1, 4]: 5%; inhibition at 0.1 µM [1, 10]: 13% |
| CN1CCc2c(c3cc(Cl)ccc3n2CC(O)c2ccncc2)C1 (single isomer, unassigned) [4a] | 176 | 25 | 57% | 52 | 24% |  |  |  |  | inhibition at 0.03 µM [1, 4]: 5%; inhibition at 0.1 µM [1, 10]: 19% |
| Cc1ccc2c(c1)c1c(n2CC(N)c2ccncc2)CCN(C)C1 (single isomer, unassigned) [27a, 2-(1,2,3,4-tetrahydro-2,8-dimethylpyrido[4,3-b]indol-5-yl)-1-(pyridin-4-yl)ethanamine] | 1100 | 34 | 59% and 64% |  | 2% and 11% |  |  |  |  |  |
| Cc1ccc2c(c1)c1c(n2CC(O)c2ccncc2)CCN(C)CC1 (single isomer, unassigned) [13b, 2-(3,9-dimethyl-2,3,4,5-tetrahydroazepino[4,5-b]indol-6(1H)-yl)-1-(pyridin-4-yl)ethanol] | 199 | 68 |  | 91 |  |  |  |  |  |  |
| Cc1ccc2c(c1)c1c(n2CC(O)c2ccncc2)CCN2CCCC12 (single isomer, unassigned) [129d] | 1.87 |  |  |  |  |  |  |  | 94% and 99% | Percentage inhibition of ligand binding, Adrenergic α2A (0.03 μM) ([1]; compound at 0.03 μM, [3H]MK-912, repeat datapoints each shown, 0.03 µM): 87%; Percentage inhibition of ligand binding, Adrenergic α1B (0.03 μM) [3, 17]: 93% |
